For data set [1] the following is noted: microsomes. Summed up:
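Dog, rat and human liver microsomes (0.5 mg/mL) with NADPH-regenerating cofactor; test compound 1 uM, duplicates. Timepoints 2, 12, 25, 45, 65 min; protein removed by centrifugation, supernatant analysed by LC/MS/MS. Clint from t1/2.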

A short description of data set [2]: in vivo. The note with it: rat, in vivo; for Vd / RAT PO F: male, SD; for Vd / RAT IV CL / RAT IV T1/2: iv; for RAT PO F: 2.5 mg/kg. Summed up: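 Male SD rats (n=3/group, 0.27–0.32 kg), fasted overnight, given 0.5 or 1.0 mg/kg by 30-min IV infusion, or by oral gavage. Serial plasma samples (EDTA-K2) over 24 h measured by LC/MS/MS; non-compartmental PK analysis.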

Data set [3] deals with HIV-1 (IIIB) in MT-4 cells. The data set is described as follows: MT-4 HIV assay. In kind it is cell-based. The note with it: Human immunodeficiency virus 1, MT4, 120 h; HIV-1 (IIIB), MT-4 cells, 5 days, Cell Titer Glo; read-out: EC50. Summed up:
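MT-4 cells infected with HIV-1 IIIB (1:250 stock dilution) were incubated with 1:3 serially diluted compounds in RPMI with 10% FBS for 5 days at 37 °C. Cell Titer Glo luminescence was the readout. Plates included mock-infected wells, no-drug wells and 5 uM AZT controls.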

The nature of data set [4]: 3H Human Predicted Clearance Assay (tritiated analogs). It is filed as in vitro ADME. Particulars: human, 1 uM. The protocol: 3H Human Predicted Clearance Assay:
For certain compounds, tritiated analogs (H^3) were prepared to further determined their human predicted clearance with increased resolution. Those studies were performed as described above using the tritiated analogs. Data from those compounds is found in Table 2 below and reported in FIG. 1 (note ATV and DRV were not tritiated).

Data set [5] can be described thus: in vivo. Particulars: for DOG IV CL / Vd / DOG PO F: in vivo, dog; for DOG IV T1/2: male beagle dogs, IV infusion over 30 minutes, 0.5 or 1.0 mg/kg; for Vd / DOG PO F: male, beagle; for DOG IV CL / Vd: iv; for DOG PO F: 2 mg/kg. The protocol: Pharmacokinetic Profiling Dog PK
Each dosing group consisted of three non-naïve male beagle dogs. At dosing, the animals weighed between 9 to 12 kg. The animals were fasted overnight prior to dose administration and up to four hours after dosing. The test article was administered by intravenous infusion over 30-minutes. The rate of infusion was adjusted according to the body weight of each animal to deliver a dose of 0.5 or 1.0 mg/kg. For the oral dosing group, the test article was administered by oral gavage at a dose volume of 2 mL/kg.
Serial venous blood samples (approximately 1.0 mL each) were collected at predose and 0.25, 0.48, 0.58, 0.75, 1.0, 1.5, 2, 4, 8, 12 and 24 hours post dose from each animal for the IV dosing group; blood samples were collected at predose, 0.25, 0.50, 1, 2 4, 6, 8,12 and 24 hours post dose for the oral dosing group. The blood samples were collected into Vacutainer™ tubes containing EDTA-K2 as the anti-coagulant and were immediately placed on wet ice pending centrifugation for plasma. An LC/MS/MS method was used to measure the concentration of test compound in plasma. Non-compartmental pharmacokinetic analysis was performed on the plasma concentration-time data. VSS=apparent volume of distribution, t1/2=half life, F=oral bioavailability.

On to `COC(=O)N[C@H](C(=O)N[C@@H](Cc1ccc(C#Cc2ccc(N3CC4CCC(C3)N4C3COC3)nc2)cc1)[C@@H](O)CN(Cc1c(F)cc(-c2ncccn2)cc1F)NC(=O)[C@@H](NC(=O)OC)C(C)(C)C(F)(F)F)C(C)(C)C(F)(F)F` [Example 101, Methyl ((5S,8S,9S,14S)-11-(2,6-difluoro-4-(pyrimidin-2-yl)benzyl)-16,16,16-trifluoro-9-hydroxy-15,15-dimethyl-8-(4-((6-(8-(oxetan-3-yl)-3,8-diazabicyclo [3.2.1]octan-3-yl)pyridin-3-yl)ethynyl)benzyl)-3,6,13-trioxo-5-(1,1,1-trifluoro-2-methylpropan-2-yl)-2-oxa-4,7,11,12-tetraazahexadecan-14-yl)carbamate], for which, in data set [1], the “Human Pred Cl.” value is <0.11 L/H/kg and the “Rat. Pred. Cl.” value is on record as <0.18 L/H/kg. Besides, in “in vivo [2]”, the Vd worked out at 6.07 L/kg, the “RAT PO F” value is on record as 38.4%, the “RAT IV CL” value stood at 0.48 L/h/kg and the “RAT IV T1/2” value amounted to 10 h. In addition, in data set [3], the EC50 came out at 4.22 nM. Moreover, the “3H Human Predicted Cl.” value in data set [4] is 0.08.

Consider `COC(=O)N[C@H](C(=O)N[C@@H](Cc1ccc(C#Cc2ccc(N3CC4CCC(C3)N4C3COC3)nc2)cc1)[C@@H](O)CN(Cc1c(F)cc(-c2ccn(C3CC3)n2)cc1F)NC(=O)[C@@H](NC(=O)OC)C(C)(C)C(F)(F)F)C(C)(C)C(F)(F)F` [Example 170, Methyl ((5S,8S,9S,14S)-11-(4-(1-cyclopropyl-1H-pyrazol-3-yl)-2,6-difluorobenzyl)-16,16,16-trifluoro-9-hydroxy-15,15-dimethyl-8-(4-((6-(8-(oxetan-3-yl)-3,8-diazabicyclo [3.2.1]octan-3-yl)pyridin-3-yl)ethynyl)benzyl)-3,6,13-trioxo-5-(1,1,1-trifluoro-2-methylpropan-2-yl)-2-oxa-4,7,11,12-tetraazahexadecan-14-yl)carbamate], for which, in the data set “in vivo [5]”, the “DOG IV CL” value came out at 1.39 L/h/kg, the “DOG IV T1/2” value turned out to be 7.62 h, the Vd was 4.35 L/kg and the “DOG PO F” value was 2.45%. In data set [1], the “Human Pred Cl.” value is <0.11 L/H/kg and the “Rat. Pred. Cl.” value is listed as <0.18 L/H/kg. In the data set “in vivo [2]”, the Vd stood at 3.32 L/kg, the “RAT PO F” value stood at 36.6%, the “RAT IV CL” value is 0.35 L/h/kg and the “RAT IV T1/2” value stood at 9.38 h. In addition, in data set [3], the concentration giving a half-maximal response (EC50) is 4.13 nM. In data set [4], the “3H Human Predicted Cl.” value is 0.05.

Turning to `COC(=O)N[C@H](C(=O)N[C@@H](Cc1ccc(C#Cc2cnc(N3CC4CCC(C3)N4C3COC3)nc2)cc1)[C@@H](O)CN(Cc1c(F)cc(-c2ccn(C(F)F)n2)cc1F)NC(=O)[C@@H](NC(=O)OC)C(C)(C)C(F)(F)F)C(C)(C)C(F)(F)F` [Example 171, Methyl ((5S,8S,9S,14S)-11-(4-(1-(difluoromethyl)-1H-pyrazol-3-yl)-2,6-difluorobenzyl)-16,16,16-trifluoro-9-hydroxy-15,15-dimethyl-8-(4-((2-(8-(oxetan-3-yl)-3,8-diazabicyclo[3.2.1]octan-3-yl)pyrimidin-5-yl)ethynyl)benzyl)-3,6,13-trioxo-5-(1,1,1-trifluoro-2-methylpropan-2-yl)-2-oxa-4,7,11,12-tetraazahexadecan-14-yl)carbamate], in “in vivo [5]”, the “DOG IV CL” value was 0.26 L/h/kg, the “DOG IV T1/2” value came out at 13.4 h, the Vd turned out to be 3.12 L/kg and the “DOG PO F” value worked out at 23%. Further, in data set [1], the “Dog. Pred. Cl.” value was determined as 0.27 L/H/kg, the “Human Pred Cl.” value is <0.11 L/H/kg and the “Rat. Pred. Cl.” value worked out at 0.215 L/H/kg. Further, in “in vivo [2]”, the Vd amounted to 8.11 L/kg, the “RAT PO F” value is on record as 39%, the “RAT IV CL” value came to 0.32 L/h/kg and the “RAT IV T1/2” value stood at 22.5 h. The EC50 in data set [3] was found to be 4.59 nM. Moreover, in data set [4], the “3H Human Predicted Cl.” value is recorded as 0.02.

Consider `COC(=O)N[C@H](C(=O)N[C@@H](Cc1ccc(-c2cnc(N3CC4CCC(C3)N4C3COC3)nc2)cc1)[C@@H](O)CN(Cc1c(F)cc(-c2ccn(C(F)F)n2)cc1F)NC(=O)[C@@H](NC(=O)OC)C(C)(C)C(F)(F)F)C(C)(C)C(F)(F)F` [Example 199, Methyl ((5S,8S,9S,14S)-11-(4-(1-(difluoromethyl)-1H-pyrazol-3-yl)-2,6-difluorobenzyl)-16,16,16-trifluoro-9-hydroxy-15,15-dimethyl-8-(4-(2-(8-(oxetan-3-yl)-3,8-diazabicyclo[3.2.1]octan-3-yl)pyrimidin-5-yl)benzyl)-3,6,13-trioxo-5-(1,1,1-trifluoro-2-methylpropan-2-yl)-2-oxa-4,7,11,12-tetraazahexadecan-14-yl)carbamate], for which, in data set [1], the “Dog. Pred. Cl.” value was 0.91 L/H/kg, the “Human Pred Cl.” value is listed as <0.11 L/H/kg and the “Rat. Pred. Cl.” value is given as 0.48 L/H/kg. Moreover, in “in vivo [2]”, the Vd came out at 1.07 L/kg, the “RAT PO F” value came out at 14.7%, the “RAT IV CL” value is 0.46 L/h/kg and the “RAT IV T1/2” value worked out at 2.09 h. For the same compound, in data set [3], the EC50 came out at 2.72 nM. In addition, the “3H Human Predicted Cl.” value in data set [4] was 0.15.

As to `COC(=O)N[C@H](C(=O)N[C@@H](Cc1ccc(C#Cc2ccc(N3CC4CCC(C3)N4C3COC3)nc2)cc1)[C@@H](O)CN(Cc1c(F)cc(-c2cc(F)ccn2)cc1F)NC(=O)[C@@H](NC(=O)OC)C(C)(C)C(F)(F)F)C(C)(C)C(F)(F)F` [Example 239, methyl ((5S,8S,9S,14S)-11-(2,6-difluoro-4-(4-fluoropyridin-2-yl)benzyl)-16,16,16-trifluoro-9-hydroxy-15,15-dimethyl-8-(4-((6-(8-(oxetan-3-yl)-3,8-diazabicyclo[3.2.1]octan-3-yl)pyridin-3-yl)ethynyl)benzyl)-3,6,13-trioxo-5-(1,1,1-trifluoro-2-methylpropan-2-yl)-2-oxa-4,7,11,12-tetraazahexadecan-14-yl)carbamate], in data set [1], the “Human Pred Cl.” value is reported as <0.11 L/H/kg and the “Rat. Pred. Cl.” value is recorded as <0.18 L/H/kg. For the same compound, in “in vivo [2]”, the Vd was 5.49 L/kg, the “RAT PO F” value came out at 26.3%, the “RAT IV CL” value is 0.4 L/h/kg and the “RAT IV T1/2” value is 12.9 h. Besides, in data set [3], the EC50 turned out to be 4.45 nM. The “3H Human Predicted Cl.” value in data set [4] is 0.13.

The record behind these values is patent US10294234B2, “HIV inhibitor compounds” (priority 2017, dated 2019).
